Source: PubChem BioAssay (NCI)
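Five concentrations, 48 hours, 96-well plates. Abbreviation: GI50, concentration required for 50% inhibition of growth. TGI: concentration producing complete growth inhibition.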

Tests used:
Test in all cases: NCI-60 cell line screen, 48 h
SK-MEL-28 melanoma = tested on: SK-MEL-28 melanoma
K-562 leukemia = tested on: K-562 leukemia
SK-OV-3 ovarian = tested on: SK-OV-3 ovarian
MALME-3M melanoma = tested on: MALME-3M melanoma
A498 renal = tested on: A498 renal
SW-620 colon = tested on: SW-620 colon
NCI-H522 lung = tested on: NCI-H522 lung
MDA-MB-468 breast = tested on: MDA-MB-468 breast
SF-539 CNS = tested on: SF-539 CNS
HCT-116 colon = tested on: HCT-116 colon
HOP-92 NSCLC = tested on: HOP-92 NSCLC
BT-549 breast = tested on: BT-549 breast
PC-3 prostate = tested on: PC-3 prostate
OVCAR-4 ovarian = tested on: OVCAR-4 ovarian
UACC-257 melanoma = tested on: UACC-257 melanoma
CAKI-1 renal = tested on: CAKI-1 renal
COLO 205 colon = tested on: COLO 205 colon
OVCAR-3 ovarian = tested on: OVCAR-3 ovarian
786-0 renal = tested on: 786-0 renal
MCF7 breast = tested on: MCF7 breast
MDA-MB-231 breast = tested on: MDA-MB-231 breast
HCC-2998 colon = tested on: HCC-2998 colon
HL-60(TB) leukemia = tested on: HL-60(TB) leukemia
U251 CNS = tested on: U251 CNS
MDA-MB-435 = tested on: MDA-MB-435
RPMI-8226 leukemia = tested on: RPMI-8226 leukemia
SNB-75 CNS = tested on: SNB-75 CNS
RXF 393 renal = tested on: RXF 393 renal
NCI-H460 lung = tested on: NCI-H460 lung
CCRF-CEM leukemia = tested on: CCRF-CEM leukemia
LOX IMVI melanoma = tested on: LOX IMVI melanoma
SK-MEL-2 melanoma = tested on: SK-MEL-2 melanoma
SF-268 CNS = tested on: SF-268 CNS
ACHN renal = tested on: ACHN renal
UO-31 renal = tested on: UO-31 renal
MOLT-4 leukemia = tested on: MOLT-4 leukemia
NCI/ADR-RES ovarian = tested on: NCI/ADR-RES ovarian
T-47D breast = tested on: T-47D breast
SNB-19 CNS = tested on: SNB-19 CNS
HOP-62 NSCLC = tested on: HOP-62 NSCLC
SK-MEL-5 melanoma = tested on: SK-MEL-5 melanoma
M14 melanoma = tested on: M14 melanoma
OVCAR-8 ovarian = tested on: OVCAR-8 ovarian
HS 578T breast = tested on: HS 578T breast
NCI-H226 lung = tested on: NCI-H226 lung
TK-10 renal = tested on: TK-10 renal
OVCAR-5 ovarian = tested on: OVCAR-5 ovarian
A549 NSCLC = tested on: A549 NSCLC
SR leukemia = tested on: SR leukemia
SN12C renal = tested on: SN12C renal
SF-295 CNS = tested on: SF-295 CNS
HT29 colon = tested on: HT29 colon
DU-145 prostate = tested on: DU-145 prostate
IGROV1 ovarian = tested on: IGROV1 ovarian
HCT-15 colon = tested on: HCT-15 colon
EKVX NSCLC = tested on: EKVX NSCLC
KM12 colon = tested on: KM12 colon
NCI-H23 lung = tested on: NCI-H23 lung
UACC-62 melanoma = tested on: UACC-62 melanoma

CC[C@@]12CC(C(=O)OC)=C3Nc4cc5c(cc4[C@@]34CCN(C[C@H]3O[C@H]31)[C@@H]24)[C@@H]1[C@H](O5)[C@@H](O)[C@@]2(CC)CC(C(=O)OC)=C3Nc4cc(O)ccc4[C@@]34CCN1[C@@H]24
GI50 (SK-MEL-28 melanoma): 622 nM
TGI (SK-MEL-28 melanoma): 15800 nM
GI50 (K-562 leukemia): 134 nM
TGI (K-562 leukemia): 7900 nM
GI50 (SK-OV-3 ovarian): 149 nM
TGI (SK-OV-3 ovarian): 6220 nM
GI50 (MALME-3M melanoma): 201 nM
TGI (MALME-3M melanoma): 2640 nM
GI50 (A498 renal): 269 nM
TGI (A498 renal): 2560 nM
GI50 (SW-620 colon): 530 nM
TGI (SW-620 colon): 5250 nM
GI50 (NCI-H522 lung): 51.5 nM
TGI (NCI-H522 lung): 752 nM
GI50 (MDA-MB-468 breast): 55.3 nM
TGI (MDA-MB-468 breast): 320 nM
GI50 (SF-539 CNS): 322 nM
TGI (SF-539 CNS): 11600 nM
GI50 (HCT-116 colon): 199 nM
TGI (HCT-116 colon): 1760 nM
GI50 (HOP-92 NSCLC): 127 nM
TGI (HOP-92 NSCLC): 11000 nM
GI50 (BT-549 breast): 370 nM
TGI (BT-549 breast): 4050 nM
GI50 (PC-3 prostate): 380 nM
TGI (PC-3 prostate): 18800 nM
GI50 (OVCAR-4 ovarian): 232 nM
TGI (OVCAR-4 ovarian): 14700 nM
GI50 (UACC-257 melanoma): 199 nM
TGI (UACC-257 melanoma): 6890 nM
GI50 (CAKI-1 renal): 61.9 nM
TGI (CAKI-1 renal): 6290 nM
GI50 (COLO 205 colon): 158 nM
TGI (COLO 205 colon): 2280 nM
GI50 (OVCAR-3 ovarian): 221 nM
TGI (OVCAR-3 ovarian): 3580 nM
GI50 (786-0 renal): 188 nM
TGI (786-0 renal): 10000 nM
GI50 (MCF7 breast): 45.2 nM
TGI (MCF7 breast): 6010 nM
GI50 (MDA-MB-231 breast): 117 nM
TGI (MDA-MB-231 breast): 1900 nM
GI50 (HCC-2998 colon): 145 nM
TGI (HCC-2998 colon): 735 nM
GI50 (HL-60(TB) leukemia): 35.1 nM
TGI (HL-60(TB) leukemia): 295 nM
GI50 (U251 CNS): 317 nM
TGI (U251 CNS): 4770 nM
GI50 (MDA-MB-435): 191 nM
TGI (MDA-MB-435): 8940 nM
GI50 (RPMI-8226 leukemia): 109 nM
TGI (RPMI-8226 leukemia): 13700 nM
GI50 (SNB-75 CNS): 21.8 nM
TGI (SNB-75 CNS): 1190 nM
GI50 (RXF 393 renal): 763 nM
TGI (RXF 393 renal): 3890 nM
GI50 (NCI-H460 lung): 441 nM
TGI (NCI-H460 lung): 7570 nM
GI50 (CCRF-CEM leukemia): 4380 nM
TGI (CCRF-CEM leukemia): 56000 nM
GI50 (LOX IMVI melanoma): 111 nM
TGI (LOX IMVI melanoma): 542 nM
GI50 (SK-MEL-2 melanoma): 876 nM
TGI (SK-MEL-2 melanoma): 5270 nM
GI50 (SF-268 CNS): 1300 nM
TGI (SF-268 CNS): 13400 nM
GI50 (ACHN renal): 363 nM
TGI (ACHN renal): 12800 nM
GI50 (UO-31 renal): 132 nM
TGI (UO-31 renal): 6080 nM
GI50 (MOLT-4 leukemia): 768 nM
TGI (MOLT-4 leukemia): 5320 nM
GI50 (NCI/ADR-RES ovarian): 1110 nM
TGI (NCI/ADR-RES ovarian): 3850 nM
GI50 (T-47D breast): 143 nM
TGI (T-47D breast): 10400 nM
GI50 (SNB-19 CNS): 277 nM
TGI (SNB-19 CNS): 9060 nM
GI50 (HOP-62 NSCLC): 156 nM
TGI (HOP-62 NSCLC): 7580 nM
GI50 (SK-MEL-5 melanoma): 154 nM
TGI (SK-MEL-5 melanoma): 958 nM
GI50 (M14 melanoma): 239 nM
TGI (M14 melanoma): 19200 nM
GI50 (OVCAR-8 ovarian): 424 nM
TGI (OVCAR-8 ovarian): 15700 nM
GI50 (HS 578T breast): 105 nM
TGI (HS 578T breast): 2860 nM
GI50 (NCI-H226 lung): 157 nM
TGI (NCI-H226 lung): 7000 nM
GI50 (TK-10 renal): 128 nM
TGI (TK-10 renal): 3310 nM
GI50 (OVCAR-5 ovarian): 1330 nM
TGI (OVCAR-5 ovarian): 15000 nM
GI50 (A549 NSCLC): 381 nM
TGI (A549 NSCLC): 11100 nM
GI50 (SR leukemia): 79.3 nM
TGI (SR leukemia): 7690 nM
GI50 (SN12C renal): 439 nM
TGI (SN12C renal): 10900 nM
GI50 (SF-295 CNS): 330 nM
TGI (SF-295 CNS): 12700 nM
GI50 (HT29 colon): 142 nM
TGI (HT29 colon): 7450 nM
GI50 (DU-145 prostate): 1720 nM
TGI (DU-145 prostate): 11500 nM
GI50 (IGROV1 ovarian): 254 nM
TGI (IGROV1 ovarian): 2930 nM
GI50 (HCT-15 colon): 173 nM
TGI (HCT-15 colon): 1800 nM
GI50 (EKVX NSCLC): 439 nM
TGI (EKVX NSCLC): 16700 nM
GI50 (KM12 colon): 273 nM
TGI (KM12 colon): 4520 nM
GI50 (NCI-H23 lung): 278 nM
TGI (NCI-H23 lung): 2370 nM
GI50 (UACC-62 melanoma): 49.1 nM
TGI (UACC-62 melanoma): 1170 nM
